Experimental findings from US8822503B2, “2-pyridone compounds” (Taisho Pharmaceutical Co., Ltd, priority 2009, dated 2014) are described below.

This assay has as its target T1, human liver GK (Homo sapiens, UniProt P35557).
T1 construct: GST (glutathione S-transferase) (N); made in house; host or cells: E. coli
T1 sequence (P35557 1-466 isoform P35557-2): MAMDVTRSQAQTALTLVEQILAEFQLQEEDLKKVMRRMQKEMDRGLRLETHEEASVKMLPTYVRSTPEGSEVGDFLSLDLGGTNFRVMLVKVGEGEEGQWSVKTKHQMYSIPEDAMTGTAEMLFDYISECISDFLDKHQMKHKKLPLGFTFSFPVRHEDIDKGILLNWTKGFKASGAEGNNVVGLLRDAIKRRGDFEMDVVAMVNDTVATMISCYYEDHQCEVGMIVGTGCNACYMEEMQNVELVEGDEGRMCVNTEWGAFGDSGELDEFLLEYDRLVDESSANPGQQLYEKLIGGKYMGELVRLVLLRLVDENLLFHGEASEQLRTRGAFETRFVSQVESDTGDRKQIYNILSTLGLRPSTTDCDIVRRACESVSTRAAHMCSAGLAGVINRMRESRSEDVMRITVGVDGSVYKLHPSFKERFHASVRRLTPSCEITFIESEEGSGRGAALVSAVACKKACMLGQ
As to the kind of experiment: GK activation test. Format: biochemical. Particulars: test compound concentration needed to activate 50% of maximum activation ability; 4 mM 14C-labeled glucose, 2 mM ATP, room temperature, 20 minutes. In short, it runs like this: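 GST-tagged human liver GK from E. coli (0.24 μg/well) with 4 mM 14C-glucose, 2 mM ATP in Hepes-KOH pH 7.1, KCl, MgCl2, DTT, 1% DMSO, 20 min room temperature. Labeled glucose 6-phosphate captured on anion resin, eluted and counted. EC50 = concentration giving half of maximal activation.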

One may read the EC50 as the concentration needed to bring the measured effect to its halfway point. A lower EC50 goes with greater potency. In turn, `O=C1CC[C@H](/C=C(\c2ccc(OC(F)(F)F)c(Cl)c2)c2ccc(C3CC3)c(=O)[nH]2)N1` [Example 4-128, 6-{(E)-1-[3-Chloro-4-(trifluoromethoxy)phenyl]-2-[(2R)-5-oxopyrrolidin-2-yl]ethenyl}-3-cyclopropylpyridin-2(1H)-one] returned an EC50 of 10 to 500 nM.

For the compound `O=C1CC[C@H](/C=C(\c2ccc(Cl)c(OC(F)(F)F)c2)c2ccc(C3CC3)c(=O)[nH]2)N1` [Example 4-129, 6-{(E)-1-[4-Chloro-3-(trifluoromethoxy)phenyl]-2-[(2R)-5-oxopyrrolidin-2-yl]ethenyl}-3-cyclopropylpyridin-2(1H)-one], the EC50 was 500 to 3000 nM. The figure for `O=C1CC[C@H](/C=C(\c2ccc(Cl)c(OC(F)F)c2)c2ccc(C3CC3)c(=O)[nH]2)N1` [Example 4-130, 6-{(E)-1-[4-Chloro-3-(difluoromethoxy)phenyl]-2-[(2R)-5-oxopyrrolidin-2-yl]ethenyl}-3-cyclopropylpyridin-2(1H)-one] is 500 to 3000 nM. The same measure for `O=C1CC[C@H](/C=C(\c2ccc(C(F)F)c(F)c2)c2ccc(C3CC3)c(=O)[nH]2)N1` [Example 4-131, 3-Cyclopropyl-6-{(E)-1-[4-(difluoromethyl)-3-fluorophenyl]-2-[(2R)-5-oxopyrrolidin-2-yl]ethenyl}pyridin-2(1H)-one]: 10 to 500 nM. The compound `O=C1CC[C@H](/C=C(\c2ccc(C(F)F)c(Cl)c2)c2ccc(C3CC3)c(=O)[nH]2)N1` [Example 4-132, 6-{(E)-1-[3-Chloro-4-(difluoromethyl)phenyl]-2-[(2R)-5-oxopyrrolidin-2-yl]ethenyl}-3-cyclopropylpyridin-2(1H)-one] yielded an EC50 of 10 to 500 nM.

Take `Cc1cc(/C(=C\[C@H]2CCC(=O)N2)c2ccc(C3CC3)c(=O)[nH]2)ccc1C(F)F` [Example 4-133, 3-Cyclopropyl-6-{(E)-1-[4-(difluoromethyl)-3-methylphenyl]-2-[(2R)-5-oxopyrrolidin-2-yl]ethenyl}pyridin-2(1H)-one]: the EC50 lay in the range of 10 to 500 nM.

In the case of `COc1ccc(/C(=C\[C@H]2CCC(=O)N2)c2ccc(C3CC3)c(=O)[nH]2)cc1C(F)(F)F` [Example 4-134, 3-Cyclopropyl-6-{(E)-1-[4-methoxy-3-(trifluoromethyl)phenyl]-2-[(2R)-5-oxopyrrolidin-2-yl]ethenyl}pyridin-2(1H)-one], the EC50 lay within 10 to 500 nM. `COc1cc(/C(=C\[C@H]2CCC(=O)N2)c2ccc(C3CC3)c(=O)[nH]2)ccc1C(F)F` [Example 4-135, 3-Cyclopropyl-6-{(E)-1-[4-(difluoromethyl)-3-methoxyphenyl]-2-[(2R)-5-oxopyrrolidin-2-yl]ethenyl}pyridin-2(1H)-one]: the EC50 fell in the range of 10 to 500 nM. The same measure for `O=C1CC[C@H](/C=C(\c2ccc(S(=O)(=O)N3CCCC3)cc2)c2ccc(C3CC3)c(=O)[nH]2)N1` [Example 4-136, 3-Cyclopropyl-6-{(E)-2-[(2R)-5-oxopyrrolidin-2-yl]-1-[4-(pyrrolidin-1-ylsulfonyl)phenyl]ethenyl}pyridin-2(1H)-one]: 10 to 500 nM; for `NS(=O)(=O)c1ccc(/C(=C\[C@H]2CCC(=O)N2)c2ccc(C3CC3)c(=O)[nH]2)cc1` [Example 4-137, 4-{(E)-1-(5-Cyclopropyl-6-oxo-1,6-dihydropyridin-2-yl)-2-[(2R)-5-oxopyrrolidin-2-yl]ethenyl}benzenesulfonamide]: 10 to 500 nM. The figure for `O=C1CC[C@H](/C=C(\c2ccc(S(=O)(=O)N3CCOCC3)cc2)c2ccc(C3CC3)c(=O)[nH]2)N1` [Example 4-138, 3-Cyclopropyl-6-{(E)-1-[4-(morpholin-4-ylsulfonyl)phenyl]-2-[(2R)-5-oxopyrrolidin-2-yl]ethenyl}pyridin-2(1H)-one] is 10 to 500 nM; for `CN(C)S(=O)(=O)Nc1ccc(/C(=C\[C@H]2CCC(=O)N2)c2ccc(C3CC3)c(=O)[nH]2)cc1` [Example 4-139, N′-(4-{(E)-1-(5-Cyclopropyl-6-oxo-1,6-dihydropyridin-2-yl)-2-[(2R)-5-oxopyrrolidin-2-yl]ethenyl}phenyl)-N,N-dimethylsulfuric acid diamide] it is 10 to 500 nM; for `CN(CCO)S(=O)(=O)c1ccc(/C(=C\[C@H]2CCC(=O)N2)c2ccc(C3CC3)c(=O)[nH]2)cc1` [Example 4-140, 4-{(E)-1-(5-Cyclopropyl-6-oxo-1,6-dihydropyridin-2-yl)-2-[(2R)-5-oxopyrrolidin-2-yl]ethenyl}-N-(2-hydroxyethyl)-N-methylbenzenesulfonamide] it is 10 to 500 nM. The figure for `O=C1CC[C@H](/C=C(\c2ccc(SC(F)(F)F)cc2)c2ccc(C3CC3)c(=O)[nH]2)N1` [Example 4-141, 3-Cyclopropyl-6-[(E)-2-[(2R)-5-oxopyrrolidin-2-yl]-1-{4-[(trifluoromethyl)sulfanyl]phenyl}ethenyl]pyridin-2(1H)-one] is 10 to 500 nM; for `CS(=O)(=O)c1ccc(/C(=C\[C@H]2CCC(=O)N2)c2ccc(C3CC3)c(=O)[nH]2)cn1` [Example 4-142, 3-Cyclopropyl-6-{(E)-1-[6-(methylsulfonyl)pyridin-3-yl]-2-[(2R)-5-oxopyrrolidin-2-yl]ethenyl}pyridin-2(1H)-one] it is 500 to 3000 nM. In turn, `O=C1CC[C@H](/C=C(\c2ccc(OC3CCOCC3)c(Cl)c2)c2ccc(C3CC3)c(=O)[nH]2)N1` [Example 4-143, 6-{(E)-1-[3-Chloro-4-(tetrahydro-2H-pyran-4-yloxy)phenyl]-2-[(2R)-5-oxopyrrolidin-2-yl]ethenyl}-3-cyclopropylpyridin-2(1H)-one] registered an EC50 of 10 to 500 nM. The compound `O=C1CC[C@H](/C=C(\c2ccncc2)c2ccc(C3CC3)c(=O)[nH]2)N1` [Example 4-144, 3-Cyclopropyl-6-[(E)-2-[(2R)-5-oxopyrrolidin-2-yl]-1-(pyridin-4-yl)ethenyl]pyridin-2(1H)-one] had an EC50 of 3000 to 10000 nM. `O=C1CC[C@H](/C=C(\c2ccc(O)c(Cl)c2)c2ccc(C3CC3)c(=O)[nH]2)N1` [Example 4-145, 6-{(E)-1-(3-Chloro-4-hydroxyphenyl)-2-[(2R)-5-oxopyrrolidin-2-yl]ethenyl}-3-cyclopropylpyridin-2(1H)-one]: the EC50 was in the range of 10 to 500 nM. The same measure for `CN1C(=O)CC[C@@H]1/C=C(\c1ccc(C(C)(C)C)cc1)c1ccc(Cl)c(=O)[nH]1` [Example 4-146, 6-{(E)-1-(4-tert-Butylphenyl)-2-[(2R)-1-methyl-5-oxopyrrolidin-2-yl]ethenyl}-3-chloropyridin-2(1H)-one]: 10 to 500 nM; for `CC(C)c1ccc(/C(=C\[C@H]2CCC(=O)N2C)c2ccc(Cl)c(=O)[nH]2)cc1` [Example 4-147, 3-Chloro-6-{(E)-2-[(2R)-1-methyl-5-oxopyrrolidin-2-yl]-1-[4-(propan-2-yl)phenyl]ethenyl}pyridin-2(1H)-one]: 10 to 500 nM; for `COc1cc(C(C)(C)C)ccc1/C(=C\[C@H]1CCC(=O)N1)c1ccc(Cl)c(=O)[nH]1` [Example 4-148, 6-{(E)-1-(4-tert-Butyl-2-methoxyphenyl)-2-[(2R)-5-oxopyrrolidin-2-yl]ethenyl}-3-chloropyridin-2(1H)-one]: 500 to 3000 nM. The figure for `O=C1CC[C@H](/C=C(\c2ccc3ccccc3c2)c2ccc(Cl)c(=O)[nH]2)N1` [Example 4-149, 3-Chloro-6-{(E)-1-(naphthalen-2-yl)-2-[(2R)-5-oxopyrrolidin-2-yl]ethenyl}pyridin-2(1H)-one] is 500 to 3000 nM; for `O=C1CC[C@H](/C=C(/c2ccc(Cl)c(=O)[nH]2)c2cccc3ccccc23)N1` [Example 4-150, 3-Chloro-6-{(E)-1-(naphthalen-1-yl)-2-[(2R)-5-oxopyrrolidin-2-yl]ethenyl}pyridin-2(1H)-one] it is 3000 to 10000 nM; for `O=C1CC[C@H](/C=C(\c2ccc(-c3ccccc3)cc2)c2ccc(Cl)c(=O)[nH]2)N1` [Example 4-151, 6-{(E)-1-(Biphenyl-4-yl)-2-[(2R)-5-oxopyrrolidin-2-yl]ethenyl}-3-chloropyridin-2(1H)-one] it is 500 to 3000 nM.

As to `O=C1CC[C@H](/C=C(\c2ccc(Oc3ccccc3)cc2)c2ccc(Cl)c(=O)[nH]2)N1` [Example 4-152, 3-Chloro-6-[(E)-2-[(2R)-5-oxopyrrolidin-2-yl]-1-(4-phenoxyphenyl)ethenyl]pyridin-2(1H)-one], the half-maximal effective concentration (EC50) was 10 to 500 nM. The same measure for `NC(=O)c1cccc(/C(=C\[C@H]2CCC(=O)N2)c2ccc(Cl)c(=O)[nH]2)c1` [Example 4-153, 3-{(E)-1-(5-Chloro-6-oxo-1,6-dihydropyridin-2-yl)-2-[(2R)-5-oxopyrrolidin-2-yl]ethenyl}benzamide]: 3000 to 10000 nM; for `O=C1CC[C@H](/C=C(\c2ccc(OCc3ccccc3)cc2)c2ccc(Cl)c(=O)[nH]2)N1` [Example 4-154, 6-{(E)-1-[4-(Benzyloxy)phenyl]-2-[(2R)-5-oxopyrrolidin-2-yl]ethenyl}-3-chloropyridin-2(1H)-one]: 500 to 3000 nM.

`CS(=O)(=O)Nc1ccc(/C(=C\[C@H]2CCC(=O)N2)c2ccc(Cl)c(=O)[nH]2)cc1` [Example 4-155, N-(4-{(E)-1-(5-Chloro-6-oxo-1,6-dihydropyridin-2-yl)-2-[(2R)-5-oxopyrrolidin-2-yl]ethenyl}phenyl)methanesulfonamide] came in with a 50% effective concentration (EC50) of 500 to 3000 nM.
